Measured values as given in patent publication US9649313B2, “Use of ITK inhibitors for the treatment of cancer” (The University of North Carolina at Chapel Hill, priority 2012, dated 2017).

How the values were obtained:
[1] = system: A375 (ITKINT) xenograft tumors; assay: melanoma xenograft mouse model; assay type: in vivo, nude mice; conditions: 15 mg per kg in food
Protocol: (§1) FIG. 6A-6F. Effects of BI 10N inhibitor on growth of melanoma xenografts in vivo. FIG. 6A-6C) Cell lines RPMI 8322 (ITKHI), VMM 39 (ITKHI), and A375 (ITKINT) were grown as described previously, suspended in matrigel and injected into the flanks of nude mice as described in the Materials and Methods section. The mice received either BI 10N at a concentration of 15 mpk or no treatment. Mice were then followed to assess the effect of the treatments on tumor progression. FIG. 6D-6F) Effect of BI 10N (15mpk) on tumor growth (mean and standard error of mean) in A375, RPMI 8322, and VMM 39 melanoma xenografts. […] Samples sizes are indicated in parentheses.
(§2) Nude athymic animals were acquired through the UNC Animal Studies Core and are similar to Jackson Labs (strain 000819). Mice were aged to 10 weeks and inoculated in the hind flank with 500K cells suspended in a 50/50 solution of Hank's Solution plus 2% FBS and matrigel (BD cat#356234). Once weekly caliper measurements of the length and width of the tumors were recorded; volume was then calculated using the formula ((L^2)×W)/2. Treatment began when a tumor reached an approximate size of 60 mm^3. Mice received compounds orally via admixture with standard rodent diet (Research Diets, Inc; New Brunswick, N.J.) or the same diet for non-treated mice as per MP1U (mouse phase I unit) protocol (Roberts et al., 2012 Clin Cancer Res 18(19):5290-5303). Tissues were cut in half and either flash frozen and then stored at −80 or formalin-fixed/paraffin embedded.

[2] = system: VMM 39 (ITKHI) xenograft tumors; assay: melanoma xenograft mouse model; assay type: in vivo, nude mice; conditions: VMM 39 xenograft; 15 mg per kg in food
Protocol: as §1, §2

[3] = system: RPMI 8322 (ITKHI) xenograft tumors; assay: melanoma xenograft mouse model; assay type: in vivo, nude mice; conditions: RPMI 8322 xenograft; 15 mg per kg in food
Protocol: as §1, §2

CDK2/CycA2 = biological target: T1, CDK2/CycA2 (Homo sapiens, UniProt P24941); assay: cell-free kinase assay; assay type: biochemical; conditions: single inhibitor concentration
T1 construct: purchased Carna Biosciences
Procedure, shortened: (§3)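 Each kinase in a 53-member panel was exposed to the inhibitor at two concentrations in a cell-free enzymatic assay to gauge selectivity.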

YES = biological target: T2, YES (Homo sapiens, UniProt P07947); assay: cell-free kinase assay; assay type: biochemical; conditions: for IC50: YES
T2 construct: purchased Carna Biosciences
Procedure, shortened: as §3

TYRO3 = biological target: T3, TYRO3 (Homo sapiens, UniProt Q06418); assay: cell-free kinase assay; assay type: biochemical; conditions: single inhibitor concentration
T3 construct: purchased Carna Biosciences
Procedure, shortened: as §3

PIM1 = biological target: T4, PIM1 (Homo sapiens, UniProt P11309); assay: cell-free kinase assay; assay type: biochemical; conditions: single inhibitor concentration
T4 construct: purchased Carna Biosciences
Procedure, shortened: as §3

FGR = biological target: T5, FGR (Homo sapiens, UniProt P09769); assay: cell-free kinase assay; assay type: biochemical; conditions: ATP concentration at approximately the Km for ATP
T5 construct: purchased Carna Biosciences
Procedure, shortened: as §3

DAPK1 = biological target: T6, DAPK1 (Homo sapiens, UniProt P53355); assay: cell-free kinase assay; assay type: biochemical; conditions: single inhibitor concentration
T6 construct: purchased Carna Biosciences
Procedure, shortened: as §3

ROCK1 = biological target: T7, ROCK1 (Homo sapiens, UniProt Q13464); assay: cell-free kinase assay; assay type: biochemical; conditions: single inhibitor concentration
T7 construct: purchased Carna Biosciences
Procedure, shortened: as §3

PYK2 = biological target: T8, PYK2 (Homo sapiens, UniProt Q14289); assay: cell-free kinase assay; assay type: biochemical; conditions: single inhibitor concentration
T8 construct: purchased Carna Biosciences
Procedure, shortened: as §3

TIE2 = biological target: T9, TIE2 (Homo sapiens, UniProt Q02763); assay: cell-free kinase assay; assay type: biochemical; conditions: single inhibitor concentration
T9 construct: purchased Carna Biosciences
Procedure, shortened: as §3

NEK2 = biological target: T10, NEK2 (Homo sapiens, UniProt P51955); assay: cell-free kinase assay; assay type: biochemical; conditions: single inhibitor concentration
T10 construct: purchased Carna Biosciences
Procedure, shortened: as §3

CK1ε = biological target: T11, CK1ε (Homo sapiens, UniProt P49674); assay: cell-free kinase assay; assay type: biochemical; conditions: single inhibitor concentration
T11 construct: purchased Carna Biosciences
Procedure, shortened: as §3

[4] = system: primary melanoma in the PTEN/BRAF GEMM; assay: PTEN/BRAF GEMM primary melanoma model; assay type: in vivo, mice
From the text: FIG. 7A-7B Effects of BI 10N inhibitor on growth of primary melanoma in the PTEN/BRAF GEMM. A primary melanoma tumor from the PTEN/BRAF mouse GEMM untreated with inhibitors stained with acid fast red for ITK using ITK antibody (Abeam cat#ab32113) (data not shown). A PTEN/BRAF mouse model was used for these in vivo studies. The mice were painted with 4HT (4-hydroxy-tamoxifen) at the base of their tails and within about 4 weeks, 4 mm×4 mm melanomas were typically present in each mouse. The animals were then divided into treatment or no treatment groups. FIG. 7A) Animals were treated as described in panel B, then placed on BI 10N BI 10N at 15 MPK or not treated. Mice were followed for 7 weeks and their tumors were measured once a week to assess tumor volume as described in the Materials and Methods. FIG. 7B) Effect of BI 10N on tumor growth (mean and standard error of mean) in the PTEN/BRAF GEMM. […] The effects of AZD6244 and PLX4032 on tumor growth are also shown. Samples sizes are indicated in parentheses.
All animal studies were approved by UNC-CH Institute for Animal Care and Use Committee prior to study start. PTEN/BRAF mice were bred in house, and tumors were induced with 1 ul of 20 mM Tamoxafen at 4 weeks near the base of the tail as previously described (Dankort et al., 2009 Nat Genet 41(5): 544-52). […]

56 protein kinases = assay: cell-free kinase selectivity panel; assay type: biochemical; conditions: versus 51 of the 56 protein kinases tested
From the text: To assess the effect of pharmacologic inhibition of ITK activity in melanoma preclinical models, we used BI 10N, which has been previously shown to inhibit ITK's phosphoryl-transfer activities (Kashem et al., 2007; Riether et al., 2009). We investigated the potency and selectivity of BI 10N against 56 kinases using a cell-free assay (Table 8A).

T2 sequence (P07947 whole entry): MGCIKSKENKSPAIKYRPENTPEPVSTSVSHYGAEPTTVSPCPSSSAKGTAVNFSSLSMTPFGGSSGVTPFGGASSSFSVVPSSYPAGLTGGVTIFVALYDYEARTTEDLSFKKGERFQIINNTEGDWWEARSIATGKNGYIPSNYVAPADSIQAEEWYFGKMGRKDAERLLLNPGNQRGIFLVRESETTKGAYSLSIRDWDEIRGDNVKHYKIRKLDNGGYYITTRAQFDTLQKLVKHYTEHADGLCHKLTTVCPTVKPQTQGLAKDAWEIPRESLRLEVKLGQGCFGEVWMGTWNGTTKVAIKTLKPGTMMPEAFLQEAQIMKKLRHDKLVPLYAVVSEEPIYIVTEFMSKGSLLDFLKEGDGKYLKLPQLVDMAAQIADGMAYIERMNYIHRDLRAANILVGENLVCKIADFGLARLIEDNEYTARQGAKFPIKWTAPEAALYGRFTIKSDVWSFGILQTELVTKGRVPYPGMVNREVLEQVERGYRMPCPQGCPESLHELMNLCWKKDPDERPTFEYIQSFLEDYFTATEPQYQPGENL
T8 sequence (Q14289 whole entry): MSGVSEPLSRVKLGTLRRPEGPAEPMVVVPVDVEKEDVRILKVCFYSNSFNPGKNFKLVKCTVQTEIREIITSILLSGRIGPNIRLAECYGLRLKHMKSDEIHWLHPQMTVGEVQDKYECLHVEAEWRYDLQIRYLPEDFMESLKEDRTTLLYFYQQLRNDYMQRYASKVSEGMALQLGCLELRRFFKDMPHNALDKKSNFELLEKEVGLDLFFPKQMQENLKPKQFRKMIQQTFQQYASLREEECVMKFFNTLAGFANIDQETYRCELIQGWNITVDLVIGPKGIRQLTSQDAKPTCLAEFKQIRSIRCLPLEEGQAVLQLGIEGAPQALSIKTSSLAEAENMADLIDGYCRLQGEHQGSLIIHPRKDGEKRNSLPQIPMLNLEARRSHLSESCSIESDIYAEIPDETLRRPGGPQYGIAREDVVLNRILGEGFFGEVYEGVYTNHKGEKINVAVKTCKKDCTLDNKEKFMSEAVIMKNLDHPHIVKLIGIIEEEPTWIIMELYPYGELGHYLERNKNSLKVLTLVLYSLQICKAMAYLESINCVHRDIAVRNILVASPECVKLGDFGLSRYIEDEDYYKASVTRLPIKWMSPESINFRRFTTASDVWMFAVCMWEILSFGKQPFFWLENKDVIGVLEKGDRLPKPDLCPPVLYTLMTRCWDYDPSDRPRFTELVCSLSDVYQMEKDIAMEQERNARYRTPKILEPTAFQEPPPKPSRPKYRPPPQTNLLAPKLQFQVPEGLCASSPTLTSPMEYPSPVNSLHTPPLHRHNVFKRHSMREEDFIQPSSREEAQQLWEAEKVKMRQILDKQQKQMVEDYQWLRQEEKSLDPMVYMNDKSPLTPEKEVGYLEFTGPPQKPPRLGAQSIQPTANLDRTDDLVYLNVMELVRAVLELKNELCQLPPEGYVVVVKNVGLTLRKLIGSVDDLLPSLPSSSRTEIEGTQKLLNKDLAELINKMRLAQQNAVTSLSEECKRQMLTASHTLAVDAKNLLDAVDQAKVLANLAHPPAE
T6 sequence (P53355 whole entry): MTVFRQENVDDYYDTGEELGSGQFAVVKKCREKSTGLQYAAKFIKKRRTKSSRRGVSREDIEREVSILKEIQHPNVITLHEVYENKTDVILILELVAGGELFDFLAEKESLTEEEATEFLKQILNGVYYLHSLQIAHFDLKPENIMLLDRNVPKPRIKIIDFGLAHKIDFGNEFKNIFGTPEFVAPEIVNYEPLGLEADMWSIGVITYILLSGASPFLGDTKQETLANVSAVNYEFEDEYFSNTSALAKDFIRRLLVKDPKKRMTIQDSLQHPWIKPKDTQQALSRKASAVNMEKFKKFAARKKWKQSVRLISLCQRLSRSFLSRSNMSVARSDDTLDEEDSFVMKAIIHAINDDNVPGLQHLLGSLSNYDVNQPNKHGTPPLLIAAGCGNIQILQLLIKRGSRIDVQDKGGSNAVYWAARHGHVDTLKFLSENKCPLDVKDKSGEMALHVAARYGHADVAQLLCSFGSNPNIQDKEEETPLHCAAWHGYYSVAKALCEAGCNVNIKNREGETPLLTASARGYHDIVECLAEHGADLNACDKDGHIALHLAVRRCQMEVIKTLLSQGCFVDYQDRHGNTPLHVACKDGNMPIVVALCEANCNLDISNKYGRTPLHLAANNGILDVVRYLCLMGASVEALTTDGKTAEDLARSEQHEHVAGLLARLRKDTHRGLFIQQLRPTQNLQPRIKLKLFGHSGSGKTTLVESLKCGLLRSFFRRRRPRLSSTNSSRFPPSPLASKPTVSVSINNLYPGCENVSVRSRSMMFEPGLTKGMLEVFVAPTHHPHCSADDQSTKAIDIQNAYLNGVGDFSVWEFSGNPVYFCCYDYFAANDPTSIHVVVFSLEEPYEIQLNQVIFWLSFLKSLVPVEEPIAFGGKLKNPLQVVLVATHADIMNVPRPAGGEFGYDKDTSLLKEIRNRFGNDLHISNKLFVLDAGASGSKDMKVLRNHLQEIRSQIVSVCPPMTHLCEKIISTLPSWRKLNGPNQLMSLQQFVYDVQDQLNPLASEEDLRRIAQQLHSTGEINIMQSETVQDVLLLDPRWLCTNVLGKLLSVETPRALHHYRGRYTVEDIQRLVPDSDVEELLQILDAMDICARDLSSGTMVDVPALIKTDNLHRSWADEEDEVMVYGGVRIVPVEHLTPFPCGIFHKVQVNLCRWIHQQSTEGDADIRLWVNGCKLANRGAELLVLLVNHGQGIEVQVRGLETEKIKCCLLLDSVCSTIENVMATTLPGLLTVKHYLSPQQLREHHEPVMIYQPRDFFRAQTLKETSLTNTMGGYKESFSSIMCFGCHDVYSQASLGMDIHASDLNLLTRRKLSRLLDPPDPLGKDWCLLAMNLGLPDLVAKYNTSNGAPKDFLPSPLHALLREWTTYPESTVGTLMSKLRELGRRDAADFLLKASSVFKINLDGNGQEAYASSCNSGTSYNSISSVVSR
T9 sequence (Q02763 23-1124): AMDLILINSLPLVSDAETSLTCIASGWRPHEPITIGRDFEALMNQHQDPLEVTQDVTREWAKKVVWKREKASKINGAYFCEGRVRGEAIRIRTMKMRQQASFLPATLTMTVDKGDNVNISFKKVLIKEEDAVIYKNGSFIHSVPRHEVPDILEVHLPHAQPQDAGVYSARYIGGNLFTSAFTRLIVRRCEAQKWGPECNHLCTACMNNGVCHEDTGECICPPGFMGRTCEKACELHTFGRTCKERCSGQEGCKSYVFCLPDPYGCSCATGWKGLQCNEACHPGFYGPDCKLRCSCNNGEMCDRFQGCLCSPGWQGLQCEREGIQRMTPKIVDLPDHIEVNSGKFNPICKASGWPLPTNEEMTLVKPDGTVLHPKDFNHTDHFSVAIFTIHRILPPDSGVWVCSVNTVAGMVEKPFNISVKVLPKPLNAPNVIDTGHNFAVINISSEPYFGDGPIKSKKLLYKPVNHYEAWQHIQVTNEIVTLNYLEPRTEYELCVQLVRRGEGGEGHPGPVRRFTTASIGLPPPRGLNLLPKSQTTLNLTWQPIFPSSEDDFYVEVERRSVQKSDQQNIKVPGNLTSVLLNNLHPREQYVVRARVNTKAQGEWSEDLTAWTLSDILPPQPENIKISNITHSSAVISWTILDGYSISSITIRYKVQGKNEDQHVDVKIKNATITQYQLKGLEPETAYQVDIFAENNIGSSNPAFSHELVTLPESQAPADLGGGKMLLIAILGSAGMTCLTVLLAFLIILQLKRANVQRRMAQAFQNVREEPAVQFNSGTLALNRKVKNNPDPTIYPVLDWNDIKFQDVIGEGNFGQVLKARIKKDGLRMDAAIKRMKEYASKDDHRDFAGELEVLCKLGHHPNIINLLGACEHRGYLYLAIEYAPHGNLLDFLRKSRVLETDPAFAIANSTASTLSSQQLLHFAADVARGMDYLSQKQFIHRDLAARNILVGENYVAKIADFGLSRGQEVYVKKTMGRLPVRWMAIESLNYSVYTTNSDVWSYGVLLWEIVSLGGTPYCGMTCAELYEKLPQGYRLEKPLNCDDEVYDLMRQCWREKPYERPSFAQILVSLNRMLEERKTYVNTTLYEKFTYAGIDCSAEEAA
T4 sequence (P11309 whole entry): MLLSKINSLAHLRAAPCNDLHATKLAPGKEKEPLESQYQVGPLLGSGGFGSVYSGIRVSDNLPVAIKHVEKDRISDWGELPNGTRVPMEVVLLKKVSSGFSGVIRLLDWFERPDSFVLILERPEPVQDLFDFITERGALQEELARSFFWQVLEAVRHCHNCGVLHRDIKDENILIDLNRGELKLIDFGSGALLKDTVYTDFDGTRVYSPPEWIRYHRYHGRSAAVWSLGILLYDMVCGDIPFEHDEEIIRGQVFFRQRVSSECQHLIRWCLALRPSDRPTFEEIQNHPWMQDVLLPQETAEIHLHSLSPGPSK
T5 sequence (P09769 whole entry): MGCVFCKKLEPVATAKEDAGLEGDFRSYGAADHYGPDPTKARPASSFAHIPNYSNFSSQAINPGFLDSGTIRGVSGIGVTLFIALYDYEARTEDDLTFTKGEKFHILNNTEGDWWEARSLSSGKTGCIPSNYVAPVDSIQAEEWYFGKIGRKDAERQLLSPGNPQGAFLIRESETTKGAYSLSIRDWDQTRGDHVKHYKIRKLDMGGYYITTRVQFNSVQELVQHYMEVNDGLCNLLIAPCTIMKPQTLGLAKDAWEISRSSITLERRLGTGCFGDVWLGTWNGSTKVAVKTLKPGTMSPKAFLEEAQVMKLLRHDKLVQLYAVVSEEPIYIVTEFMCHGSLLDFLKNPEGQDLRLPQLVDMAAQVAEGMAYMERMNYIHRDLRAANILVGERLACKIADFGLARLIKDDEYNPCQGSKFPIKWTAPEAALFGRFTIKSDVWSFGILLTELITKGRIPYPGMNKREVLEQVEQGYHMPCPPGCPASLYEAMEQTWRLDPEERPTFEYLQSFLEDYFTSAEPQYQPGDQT

Q: How did the tumor growth [1] turn out when `CC(C)C(C)CNCc1ccc2c(c1)[nH]/c(=N\C(=O)c1ccc(C3=CN=NC3)s1)n2CC(C)(C)O` (centres unmarked) [BI 10N] was run?
A: Its tumor growth is “did not slow”.

Q: And the tumor growth [2]?
A: Its tumor growth is “significantly slowed”.

Q: What about the tumor growth [3] of the same compound?
A: The tumor growth was “significantly slowed”.

Q: What about the inhibition at 0.2 µM (CDK2/CycA2) of the same compound?
A: The inhibition at 0.2 µM was 72.3%.

Q: And the “selectivity for ITK over YES” value (YES)?
A: Its value is “about 10 fold”.

Q: What about the IC50 (YES; 1 mM ATP, Km ATP 13 μM) of the same compound?
A: The IC50 was 5.9 nM.

Q: And the IC50 (YES; ATP concentration at approximately the Km for ATP)?
A: The IC50 was 0.993 nM.

Q: What about the IC50 (YES; Table 2, by Carna Biosciences) of the same compound?
A: Its IC50 is 0.993 nM.

Q: And the inhibition at 0.2 µM (TYRO3)?
A: Its inhibition at 0.2 µM is 35.6%.

Q: What about the inhibition at 0.2 µM (PIM1) of the same compound?
A: Its inhibition at 0.2 µM is 10.4%.

Q: What about the IC50 (FGR) of the same compound?
A: The IC50 was 2.89 nM.

Q: And the inhibition at 0.2 µM (DAPK1)?
A: Its inhibition at 0.2 µM is 5.5%.

Q: What about the inhibition at 0.2 µM (ROCK1) of the same compound?
A: Its inhibition at 0.2 µM is 33%.

Q: What about the inhibition at 0.2 µM (PYK2) of the same compound?
A: The inhibition at 0.2 µM was 35.1%.

Q: And the inhibition at 0.2 µM (TIE2)?
A: The inhibition at 0.2 µM was 8.2%.

Q: What about the inhibition at 0.2 µM (NEK2) of the same compound?
A: Its inhibition at 0.2 µM is 0.3%.

Q: What about the inhibition at 0.2 µM (CK1ε) of the same compound?
A: Its inhibition at 0.2 µM is 76.2%.

Q: What about the “tumor growth compared with AZD6244 and PLX4032” value ([4]; PTEN/BRAF GEMM, FIG. 7B) of the same compound?
A: Its value is “performs better in vivo than MEK inhibitor AZD6244 (selumentinib) and V600E BRAF inhibitor PLX4032 (vemurafenib)”.

Q: What about the progression of tumors ([4]; PTEN/BRAF mice, 15 mg per kg, compared to the no treatment group) of the same compound?
A: Its progression of tumors is “profoundly retarded the progression of tumors”.

Q: What about the “selectivity for ITK over other protein kinases” value (56 protein kinases) of the same compound?
A: The value was “at least 1000 fold”.
